# Results reported in paper PMC11167047 (Cell Death Discovery, 2024).
# Experiments:
# Assay in all cases: kinome screen (33PanQinase)
# Assay type in all cases: biochemical
# GRK5 = target: T1, GRK5 (Homo sapiens, UniProt P34947)
# T1 construct: purchased Reaction Biology Europe GmbH (formerly ProQinase)
# Method: (§1) The Kinome Screening was performed by Reaction Biology Europe GmbH (http://reactionbiology.com; Freiburg i. Br., Germany).
# MERTK = target: T2, MERTK (Homo sapiens, UniProt Q12866)
# T2 construct: purchased Reaction Biology Europe GmbH (formerly ProQinase)
# T2 sequence (Q12866 21-999): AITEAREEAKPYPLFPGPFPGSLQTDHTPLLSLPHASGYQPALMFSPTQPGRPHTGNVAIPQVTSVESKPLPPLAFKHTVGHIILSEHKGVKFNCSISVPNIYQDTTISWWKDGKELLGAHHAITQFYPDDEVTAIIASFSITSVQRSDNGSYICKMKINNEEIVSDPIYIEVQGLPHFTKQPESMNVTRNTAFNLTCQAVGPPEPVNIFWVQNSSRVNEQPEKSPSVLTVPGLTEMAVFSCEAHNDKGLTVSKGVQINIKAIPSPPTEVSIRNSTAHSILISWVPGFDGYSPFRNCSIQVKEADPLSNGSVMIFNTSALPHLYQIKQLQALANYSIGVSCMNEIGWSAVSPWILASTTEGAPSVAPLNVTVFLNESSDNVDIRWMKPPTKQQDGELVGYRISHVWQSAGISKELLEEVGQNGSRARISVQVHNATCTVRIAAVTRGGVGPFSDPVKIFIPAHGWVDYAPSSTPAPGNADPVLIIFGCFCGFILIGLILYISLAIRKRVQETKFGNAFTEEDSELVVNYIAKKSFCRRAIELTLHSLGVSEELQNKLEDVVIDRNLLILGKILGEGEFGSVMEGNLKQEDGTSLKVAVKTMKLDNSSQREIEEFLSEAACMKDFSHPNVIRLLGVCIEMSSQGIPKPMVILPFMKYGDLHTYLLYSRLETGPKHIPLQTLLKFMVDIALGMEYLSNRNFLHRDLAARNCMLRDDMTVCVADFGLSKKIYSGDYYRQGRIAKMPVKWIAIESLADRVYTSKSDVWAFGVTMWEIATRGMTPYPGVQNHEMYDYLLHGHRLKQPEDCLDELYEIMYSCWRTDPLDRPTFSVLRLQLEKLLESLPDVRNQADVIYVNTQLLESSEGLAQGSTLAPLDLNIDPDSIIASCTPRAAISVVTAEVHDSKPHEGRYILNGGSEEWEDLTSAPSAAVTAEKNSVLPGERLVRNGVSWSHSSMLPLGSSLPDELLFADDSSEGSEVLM
# Method: as §1
# DAPK1 = target: T3, DAPK1 (Homo sapiens, UniProt P53355)
# T3 construct: purchased Reaction Biology Europe GmbH (formerly ProQinase)
# Method: as §1
# ACVRL1 = target: T4, ACVRL1 (Homo sapiens, UniProt P37023)
# T4 construct: purchased Reaction Biology Europe GmbH (formerly ProQinase)
# Method: as §1
# RPS6KA4 = target: T5, RPS6KA4 (Homo sapiens, UniProt O75676)
# T5 construct: purchased Reaction Biology Europe GmbH (formerly ProQinase)
# T5 sequence (O75676 whole entry): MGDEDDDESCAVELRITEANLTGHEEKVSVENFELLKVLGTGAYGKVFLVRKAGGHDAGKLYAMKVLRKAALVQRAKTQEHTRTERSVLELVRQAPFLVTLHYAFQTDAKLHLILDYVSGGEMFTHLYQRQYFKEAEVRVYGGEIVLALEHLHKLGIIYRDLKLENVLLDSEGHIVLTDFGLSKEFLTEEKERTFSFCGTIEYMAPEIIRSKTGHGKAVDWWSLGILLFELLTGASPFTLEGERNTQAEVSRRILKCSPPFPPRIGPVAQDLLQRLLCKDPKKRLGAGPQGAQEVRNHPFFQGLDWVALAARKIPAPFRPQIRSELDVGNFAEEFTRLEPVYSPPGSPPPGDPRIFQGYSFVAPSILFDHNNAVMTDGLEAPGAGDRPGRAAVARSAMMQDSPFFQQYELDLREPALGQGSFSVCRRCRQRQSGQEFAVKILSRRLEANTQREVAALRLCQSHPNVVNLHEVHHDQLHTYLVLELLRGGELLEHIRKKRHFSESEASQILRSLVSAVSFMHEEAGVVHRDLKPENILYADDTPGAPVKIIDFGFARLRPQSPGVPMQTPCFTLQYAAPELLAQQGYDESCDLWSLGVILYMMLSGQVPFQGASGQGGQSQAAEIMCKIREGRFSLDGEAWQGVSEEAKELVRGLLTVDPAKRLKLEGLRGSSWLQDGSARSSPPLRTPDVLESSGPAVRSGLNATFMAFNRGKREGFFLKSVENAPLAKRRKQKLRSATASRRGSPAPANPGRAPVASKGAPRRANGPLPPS
# Method: as §1
# HIPK2 = target: T6, HIPK2 (Homo sapiens, UniProt Q9H2X6)
# T6 construct: purchased Reaction Biology Europe GmbH (formerly ProQinase)
# T6 sequence (Q9H2X6 whole entry): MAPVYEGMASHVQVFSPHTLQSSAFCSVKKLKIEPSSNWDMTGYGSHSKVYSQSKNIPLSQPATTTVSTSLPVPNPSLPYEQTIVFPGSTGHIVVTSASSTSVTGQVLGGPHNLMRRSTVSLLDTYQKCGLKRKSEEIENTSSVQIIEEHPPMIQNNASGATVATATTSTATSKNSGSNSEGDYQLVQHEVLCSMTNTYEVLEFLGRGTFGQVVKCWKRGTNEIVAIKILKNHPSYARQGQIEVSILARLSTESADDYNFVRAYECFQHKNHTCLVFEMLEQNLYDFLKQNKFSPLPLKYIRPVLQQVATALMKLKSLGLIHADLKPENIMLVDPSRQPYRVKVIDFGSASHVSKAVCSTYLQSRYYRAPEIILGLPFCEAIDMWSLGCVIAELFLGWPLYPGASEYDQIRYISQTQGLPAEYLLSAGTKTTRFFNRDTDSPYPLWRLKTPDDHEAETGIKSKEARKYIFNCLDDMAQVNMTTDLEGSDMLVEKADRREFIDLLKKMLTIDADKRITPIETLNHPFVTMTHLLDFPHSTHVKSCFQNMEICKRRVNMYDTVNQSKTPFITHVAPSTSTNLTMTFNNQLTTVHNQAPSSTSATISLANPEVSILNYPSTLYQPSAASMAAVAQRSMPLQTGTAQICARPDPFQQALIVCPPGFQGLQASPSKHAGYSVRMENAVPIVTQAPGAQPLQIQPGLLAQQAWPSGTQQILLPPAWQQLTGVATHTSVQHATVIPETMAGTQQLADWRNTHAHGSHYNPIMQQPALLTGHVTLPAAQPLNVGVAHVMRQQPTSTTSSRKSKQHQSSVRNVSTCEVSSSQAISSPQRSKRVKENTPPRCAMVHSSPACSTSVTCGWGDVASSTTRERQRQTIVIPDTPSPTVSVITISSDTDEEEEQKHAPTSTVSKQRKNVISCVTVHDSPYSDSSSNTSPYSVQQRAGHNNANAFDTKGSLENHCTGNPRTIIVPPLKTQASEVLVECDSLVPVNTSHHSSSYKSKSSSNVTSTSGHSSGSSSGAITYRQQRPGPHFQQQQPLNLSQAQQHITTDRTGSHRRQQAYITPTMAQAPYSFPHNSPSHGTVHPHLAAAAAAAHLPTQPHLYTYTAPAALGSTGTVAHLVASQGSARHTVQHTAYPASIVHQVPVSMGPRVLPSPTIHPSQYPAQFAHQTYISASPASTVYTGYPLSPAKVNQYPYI
# Method: as §1
# CDK2/CycA2 = target: T7, CDK2/CycA2 (Homo sapiens, UniProt P24941)
# T7 construct: purchased Reaction Biology Europe GmbH (formerly ProQinase)
# Method: as §1
# CDC42BPA = target: T8, CDC42BPA (Homo sapiens, UniProt Q5VT25)
# T8 construct: purchased Reaction Biology Europe GmbH (formerly ProQinase)
# T8 sequence (Q5VT25 whole entry): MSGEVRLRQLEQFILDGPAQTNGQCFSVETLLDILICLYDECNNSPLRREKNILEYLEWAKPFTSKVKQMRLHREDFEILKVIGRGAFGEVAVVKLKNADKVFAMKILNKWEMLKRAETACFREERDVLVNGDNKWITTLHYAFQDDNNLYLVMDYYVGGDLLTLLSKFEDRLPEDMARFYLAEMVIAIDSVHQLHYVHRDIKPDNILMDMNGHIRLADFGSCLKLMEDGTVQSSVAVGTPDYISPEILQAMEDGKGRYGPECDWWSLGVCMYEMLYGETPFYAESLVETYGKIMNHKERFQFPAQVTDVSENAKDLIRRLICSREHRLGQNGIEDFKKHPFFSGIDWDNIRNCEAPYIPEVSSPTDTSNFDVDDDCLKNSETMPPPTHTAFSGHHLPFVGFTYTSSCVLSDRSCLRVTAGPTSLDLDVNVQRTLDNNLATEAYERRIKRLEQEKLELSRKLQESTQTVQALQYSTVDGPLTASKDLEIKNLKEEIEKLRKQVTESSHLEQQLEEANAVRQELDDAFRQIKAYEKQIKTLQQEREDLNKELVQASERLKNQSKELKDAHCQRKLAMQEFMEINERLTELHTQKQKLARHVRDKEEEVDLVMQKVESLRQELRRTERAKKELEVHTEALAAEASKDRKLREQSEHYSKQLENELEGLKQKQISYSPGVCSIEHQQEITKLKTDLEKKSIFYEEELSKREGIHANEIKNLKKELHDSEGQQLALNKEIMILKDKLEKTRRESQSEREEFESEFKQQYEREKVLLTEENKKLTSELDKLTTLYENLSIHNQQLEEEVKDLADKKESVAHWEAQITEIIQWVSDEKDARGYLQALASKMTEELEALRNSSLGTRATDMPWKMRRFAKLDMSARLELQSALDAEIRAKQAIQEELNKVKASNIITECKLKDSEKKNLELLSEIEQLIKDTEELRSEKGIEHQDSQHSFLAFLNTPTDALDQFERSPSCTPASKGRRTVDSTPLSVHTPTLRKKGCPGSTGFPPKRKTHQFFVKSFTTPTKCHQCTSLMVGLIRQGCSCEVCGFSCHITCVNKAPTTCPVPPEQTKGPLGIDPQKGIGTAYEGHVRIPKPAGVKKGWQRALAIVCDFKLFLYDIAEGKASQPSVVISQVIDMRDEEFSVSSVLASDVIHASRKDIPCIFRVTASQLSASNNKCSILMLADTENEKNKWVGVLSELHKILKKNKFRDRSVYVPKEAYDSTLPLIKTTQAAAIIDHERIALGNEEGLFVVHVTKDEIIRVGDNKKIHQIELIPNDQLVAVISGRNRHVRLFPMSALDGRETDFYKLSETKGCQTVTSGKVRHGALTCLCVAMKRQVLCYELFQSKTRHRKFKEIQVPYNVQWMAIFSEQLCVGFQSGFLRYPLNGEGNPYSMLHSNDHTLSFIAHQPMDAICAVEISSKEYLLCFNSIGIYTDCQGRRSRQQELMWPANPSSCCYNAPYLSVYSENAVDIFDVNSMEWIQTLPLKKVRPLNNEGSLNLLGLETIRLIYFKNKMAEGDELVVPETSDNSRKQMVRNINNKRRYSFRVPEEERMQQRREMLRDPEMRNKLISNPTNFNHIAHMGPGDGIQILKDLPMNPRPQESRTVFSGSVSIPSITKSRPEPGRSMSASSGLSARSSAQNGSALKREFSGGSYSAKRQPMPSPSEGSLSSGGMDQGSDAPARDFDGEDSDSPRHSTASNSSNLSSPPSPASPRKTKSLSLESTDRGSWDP
# Method: as §1
# NEK2 = target: T9, NEK2 (Homo sapiens, UniProt P51955)
# T9 construct: purchased Reaction Biology Europe GmbH (formerly ProQinase)
# T9 sequence (P51955 1-445): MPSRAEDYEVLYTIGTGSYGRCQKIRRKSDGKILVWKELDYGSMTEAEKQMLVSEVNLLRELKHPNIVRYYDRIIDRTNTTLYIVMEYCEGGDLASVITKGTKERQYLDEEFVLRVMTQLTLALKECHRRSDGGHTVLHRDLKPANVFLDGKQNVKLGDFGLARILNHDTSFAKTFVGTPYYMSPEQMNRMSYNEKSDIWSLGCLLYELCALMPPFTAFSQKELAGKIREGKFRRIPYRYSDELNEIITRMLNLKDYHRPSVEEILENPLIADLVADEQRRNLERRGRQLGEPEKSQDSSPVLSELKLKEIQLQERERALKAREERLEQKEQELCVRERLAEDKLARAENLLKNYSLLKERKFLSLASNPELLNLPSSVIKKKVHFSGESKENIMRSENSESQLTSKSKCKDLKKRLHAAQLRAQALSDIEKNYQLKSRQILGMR
# Method: as §1
# CDK8/CycC = target: T10, CDK8/CycC (Homo sapiens, UniProt P49336)
# T10 construct: purchased Reaction Biology Europe GmbH (formerly ProQinase)
# Method: as §1
# MKNK2 = target: T11, MKNK2 (Homo sapiens, UniProt Q9HBH9)
# T11 construct: purchased Reaction Biology Europe GmbH (formerly ProQinase)
# T11 sequence (Q9HBH9 whole entry): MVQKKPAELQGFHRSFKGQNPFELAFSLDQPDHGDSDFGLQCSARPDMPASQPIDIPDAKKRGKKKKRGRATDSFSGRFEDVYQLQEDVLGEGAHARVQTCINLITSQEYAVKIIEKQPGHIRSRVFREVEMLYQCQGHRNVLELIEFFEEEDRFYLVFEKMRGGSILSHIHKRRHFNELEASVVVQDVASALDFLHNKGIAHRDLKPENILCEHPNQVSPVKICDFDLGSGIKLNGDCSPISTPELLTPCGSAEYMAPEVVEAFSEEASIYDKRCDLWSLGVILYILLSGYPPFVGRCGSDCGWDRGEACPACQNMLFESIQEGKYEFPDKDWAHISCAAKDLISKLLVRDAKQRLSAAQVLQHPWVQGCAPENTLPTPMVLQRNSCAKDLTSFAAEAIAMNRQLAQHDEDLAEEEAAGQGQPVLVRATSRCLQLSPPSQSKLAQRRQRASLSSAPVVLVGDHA
# Method: as §1
# p38Δ = target: T12, p38Δ (Homo sapiens, UniProt O15264)
# T12 construct: purchased Reaction Biology Europe GmbH (formerly ProQinase)
# T12 sequence (O15264 1-365): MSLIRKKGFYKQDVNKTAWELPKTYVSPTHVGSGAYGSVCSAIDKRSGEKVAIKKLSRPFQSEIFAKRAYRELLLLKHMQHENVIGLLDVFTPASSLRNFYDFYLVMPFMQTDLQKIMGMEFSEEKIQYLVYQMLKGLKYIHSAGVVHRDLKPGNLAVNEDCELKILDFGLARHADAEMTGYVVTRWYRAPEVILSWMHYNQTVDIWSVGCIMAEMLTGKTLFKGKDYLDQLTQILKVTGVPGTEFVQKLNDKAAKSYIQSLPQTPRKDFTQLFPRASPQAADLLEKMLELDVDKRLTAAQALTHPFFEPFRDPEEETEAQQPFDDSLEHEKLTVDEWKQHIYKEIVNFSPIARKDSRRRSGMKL
# Method: as §1
# T1 sequence (P34947 whole entry): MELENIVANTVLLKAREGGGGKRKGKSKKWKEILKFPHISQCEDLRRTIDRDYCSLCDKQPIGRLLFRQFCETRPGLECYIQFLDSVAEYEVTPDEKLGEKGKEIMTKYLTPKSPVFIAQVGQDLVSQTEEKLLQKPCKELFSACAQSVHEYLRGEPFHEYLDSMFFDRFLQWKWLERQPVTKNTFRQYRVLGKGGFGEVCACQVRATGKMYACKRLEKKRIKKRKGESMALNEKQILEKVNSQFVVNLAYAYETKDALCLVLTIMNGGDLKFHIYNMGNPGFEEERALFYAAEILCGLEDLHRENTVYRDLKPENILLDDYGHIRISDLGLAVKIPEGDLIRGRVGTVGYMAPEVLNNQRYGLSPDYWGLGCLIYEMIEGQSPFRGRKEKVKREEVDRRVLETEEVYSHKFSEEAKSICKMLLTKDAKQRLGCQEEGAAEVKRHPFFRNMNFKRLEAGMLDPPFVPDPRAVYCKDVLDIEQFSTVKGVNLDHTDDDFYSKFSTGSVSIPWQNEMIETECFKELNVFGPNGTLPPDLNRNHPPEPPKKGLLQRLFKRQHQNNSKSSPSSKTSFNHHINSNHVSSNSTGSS
Compound,residual kinase activity (GRK5; 0.3 µM),residual kinase activity (MERTK; 0.3 µM),residual kinase activity (DAPK1; 0.3 µM),residual kinase activity (ACVRL1; 0.3 µM),residual kinase activity (RPS6KA4; 0.3 µM),residual kinase activity (HIPK2; 0.3 µM),residual kinase activity (CDK2/CycA2; 0.3 µM),residual kinase activity (CDC42BPA; 0.3 µM),residual kinase activity (NEK2; 0.3 µM),residual kinase activity (CDK8/CycC; 0.3 µM),residual kinase activity (MKNK2; 0.3 µM),residual kinase activity (p38Δ; 0.3 µM),other results
COc1ccnc2[nH]cc(-c3cc(N)nc(N)c3)c12 [meriolin 16],91 % of control,86 % of control,72 % of control,89 % of control,89 % of control,4 % of control,2 % of control,7 % of control,96 % of control,4 % of control,62 % of control,24 % of control,residual kinase activity (GRK5; 0.03 µM): 118 % of control; residual kinase activity (MERTK; 0.03 µM): 97 % of control; residual kinase activity (DAPK1; 0.03 µM): 112 % of control; residual kinase activity (ACVRL1; 0.03 µM): 101 % of control; residual kinase activity (RPS6KA4; 0.03 µM): 90 % of control; residual kinase activity (HIPK2; 0.03 µM): 36 % of control; residual kinase activity (CDK2/CycA2; 0.03 µM): 18 % of control; residual kinase activity (CDC42BPA; 0.03 µM): 53 % of control; residual kinase activity (NEK2; 0.03 µM): 103 % of control; residual kinase activity (CDK8/CycC; 0.03 µM): 6 % of control; residual kinase activity (MKNK2; 0.03 µM): 93 % of control; residual kinase activity (p38Δ; 0.03 µM): 79 % of control
c1ccc(CNc2cc(-c3c[nH]c4ncccc34)ccn2)cc1 [meriolin 36],119 % of control,69 % of control,119 % of control,43 % of control,71 % of control,22 % of control,1 % of control,1 % of control,95 % of control,5 % of control,16 % of control,59 % of control,residual kinase activity (GRK5; 3 µM): 74 % of control; residual kinase activity (MERTK; 3 µM): 36 % of control; residual kinase activity (DAPK1; 3 µM): 64 % of control; residual kinase activity (ACVRL1; 3 µM): 9 % of control; residual kinase activity (RPS6KA4; 3 µM): 29 % of control; residual kinase activity (HIPK2; 3 µM): 3 % of control; residual kinase activity (CDK2/CycA2; 3 µM): 2 % of control; residual kinase activity (CDC42BPA; 3 µM): 1 % of control; residual kinase activity (NEK2; 3 µM): 72 % of control; residual kinase activity (CDK8/CycC; 3 µM): 2 % of control; residual kinase activity (MKNK2; 3 µM): 3 % of control; residual kinase activity (p38Δ; 3 µM): 14 % of control
